Source: patent US7919498B2, “Substituted pyrazolo[3,4-d]pyrimidines as PI3K inhibitors” (Amgen Inc., priority 2007, dated 2011)

These molecules were tested against T1, PI3Kδ (Homo sapiens, UniProt O00329) (assay: In vitro enzyme assay of PI3Kδ (residual ATP bioluminescence)). Conditions: not given.
T1 construct: Full length p110 subunits of PI3k α, β and δ, N-terminally labeled with polyHis tag; polyHis (N); made in house; host or cells: Sf9 insect cells (baculovirus)
T1 sequence (O00329 whole entry): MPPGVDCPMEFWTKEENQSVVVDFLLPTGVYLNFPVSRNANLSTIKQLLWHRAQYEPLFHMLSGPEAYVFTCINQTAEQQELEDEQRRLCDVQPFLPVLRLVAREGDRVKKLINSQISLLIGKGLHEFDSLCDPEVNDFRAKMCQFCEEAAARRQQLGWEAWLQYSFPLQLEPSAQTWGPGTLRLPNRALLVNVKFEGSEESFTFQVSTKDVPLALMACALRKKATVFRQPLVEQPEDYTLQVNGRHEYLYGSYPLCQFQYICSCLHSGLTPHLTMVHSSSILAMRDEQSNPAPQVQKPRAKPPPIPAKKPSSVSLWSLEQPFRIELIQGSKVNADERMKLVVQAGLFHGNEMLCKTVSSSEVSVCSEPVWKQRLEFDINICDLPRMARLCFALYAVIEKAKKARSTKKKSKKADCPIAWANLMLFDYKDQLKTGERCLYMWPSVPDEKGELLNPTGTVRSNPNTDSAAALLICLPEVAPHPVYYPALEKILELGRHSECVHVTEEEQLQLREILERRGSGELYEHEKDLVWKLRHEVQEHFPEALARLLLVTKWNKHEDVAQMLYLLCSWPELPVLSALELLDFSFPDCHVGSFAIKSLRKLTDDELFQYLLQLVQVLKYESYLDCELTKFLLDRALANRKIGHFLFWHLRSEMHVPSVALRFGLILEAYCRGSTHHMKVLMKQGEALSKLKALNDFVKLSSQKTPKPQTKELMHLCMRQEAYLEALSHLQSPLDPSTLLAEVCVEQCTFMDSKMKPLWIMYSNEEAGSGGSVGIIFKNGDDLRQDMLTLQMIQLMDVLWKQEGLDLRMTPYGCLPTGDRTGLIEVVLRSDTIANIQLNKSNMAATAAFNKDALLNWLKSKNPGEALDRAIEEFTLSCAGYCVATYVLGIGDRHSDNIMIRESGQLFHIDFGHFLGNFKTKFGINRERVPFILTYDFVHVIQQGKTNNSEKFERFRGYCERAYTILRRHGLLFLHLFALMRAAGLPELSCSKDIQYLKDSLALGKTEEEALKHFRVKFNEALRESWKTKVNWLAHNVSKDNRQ
T1 sequence (P27986 whole entry partner): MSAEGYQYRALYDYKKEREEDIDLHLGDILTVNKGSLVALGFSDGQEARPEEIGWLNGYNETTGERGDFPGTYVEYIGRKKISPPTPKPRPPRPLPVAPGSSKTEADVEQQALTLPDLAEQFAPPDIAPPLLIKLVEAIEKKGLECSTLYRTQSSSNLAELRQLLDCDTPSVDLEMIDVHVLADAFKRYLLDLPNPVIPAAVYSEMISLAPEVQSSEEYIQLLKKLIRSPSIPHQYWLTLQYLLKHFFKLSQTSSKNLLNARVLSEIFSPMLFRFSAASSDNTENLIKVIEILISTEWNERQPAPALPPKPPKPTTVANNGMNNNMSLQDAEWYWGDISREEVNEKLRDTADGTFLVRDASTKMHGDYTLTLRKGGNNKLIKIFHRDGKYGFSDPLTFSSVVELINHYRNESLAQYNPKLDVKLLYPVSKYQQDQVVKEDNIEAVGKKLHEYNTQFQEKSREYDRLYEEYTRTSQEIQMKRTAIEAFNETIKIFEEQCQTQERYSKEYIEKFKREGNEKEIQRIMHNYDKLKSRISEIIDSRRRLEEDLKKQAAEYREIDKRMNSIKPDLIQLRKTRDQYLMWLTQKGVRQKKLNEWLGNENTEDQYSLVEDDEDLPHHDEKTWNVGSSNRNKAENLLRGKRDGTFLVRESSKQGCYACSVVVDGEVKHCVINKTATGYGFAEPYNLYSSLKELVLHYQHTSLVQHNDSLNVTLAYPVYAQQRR
Type: biochemical
Method: Recombinant Expression of PI3Ks
Full length p110 subunits of PI3k α, β and δ, N-terminally labeled with polyHis tag, were coexpressed with p85 with Baculo virus expression vectors in sf9 insect cells. P110/p85 heterodimers were purified by sequential Ni-NTA, Q-HP, Superdex-100 chromatography. Purified α, β and δ isozymes were stored at −20° C. in 20 mM Tris, pH 8, 0.2M NaCl, 50% glycerol, 5 mM DTT, 2 mM Na cholate. Truncated PI3Kγ, residues 114-1102, N-terminally labeled with polyHis tag, was expressed with Baculo virus in Hi5 insect cells. The γ isozyme was purified by sequential Ni-NTA, Superdex-200, Q-HP chromatography. The γ isozyme was stored frozen at −80° C. in NaH2PO4, pH 8, 0.2M NaCl, 1% ethylene glycol, 2 mM β-mercaptoethanol.
Assays were performed in 25 μL with the above final concentrations of components in white polyproplyene plates (Costar 3355). Phospatidyl inositol phosphoacceptor, PtdIns(4,5)P2 P4508, was from Echelon Biosciences. The ATPase activity of the alpha and gamma isozymes was not greatly stimulated by PtdIns(4,5)P2 under these conditions and was therefore omitted from the assay of these isozymes. Test compounds were dissolved in dimethyl sulfoxide and diluted with three-fold serial dilutions. The compound in DMSO (1 μL) was added per test well, and the inhibition relative to reactions containing no compound, with and without enzyme was determined. After assay incubation at room temperature, the reaction was stopped and residual ATP determined by addition of an equal volume of a commercial ATP bioluminescence kit (Perkin Elmer EasyLite) according to the manufacturer's instructions, and detected using a AnalystGT luminometer.
Work on `Cc1cccc2cc(Cn3nc(-c4cn[nH]c4)c4c(N)ncnc43)c(-c3ccccc3C(F)(F)F)nc12` [Example 12, 1-((8-Methyl-2-(2-(trifluoromethyl)phenyl)quinolin-3-yl)methyl)-3-(1H-pyrazol-4-yl)-1H-pyrazolo[3,4-d]pyrimidin-4-amine] yielded an IC50 of 8 nM.
In the case of `Cc1cccc2cc(Cn3cc(Cl)c4c(N)ncnc43)c(-c3ccccc3Cl)nc12` [Example 20, 5-Chloro-7-((2-(2-chlorophenyl)-8-methylquinolin-3-yl)methyl)-7H-pyrrolo[2,3-d]pyrimidin-4-amine], the IC50 is reported as 20 nM.
`Nc1ncnc2c1c(I)nn2Cc1cc2cccc(Cl)c2nc1-c1ccccc1C(F)(F)F` [Example 6, 1-((8-Chloro-2-(2-(trifluoromethyl)phenyl)quinolin-3-yl)methyl)-3-iodo-1H-pyrazolo[3,4-d]pyrimidin-4-amine] showed an IC50 of 7 nM.
In the case of `Cc1cccc2nc(Cn3nc(-c4cn[nH]c4)c4c(N)ncnc43)c(-c3ccccc3Cl)nc12` [Example 18, 1-((3-(2-Chlorophenyl)-5-methylquinoxalin-2-yl)methyl)-3-(1H-pyrazol-4-yl)-1H-pyrazolo[3,4-d]pyrimidin-4-amine], the IC50 is reported as 30 nM.
For `Cc1cccc2cc(Cn3nc(C#CC(C)(C)O)c4c(N)ncnc43)c(-c3ccccc3C(F)(F)F)nc12` [Example 14, 4-(4-Amino-1-((8-methyl-2-(2-(trifluoromethyl)phenyl)quinolin-3-yl)methyl)-1H-pyrazolo[3,4-d]pyrimidin-3-yl)-2-methylbut-3-yn-2-ol], the IC50 was 116 nM.
Molecule `Cc1cccc2cc(Cn3nc(C)c4c(N)ncnc43)c(-c3ccccc3Cl)nc12` [Example 11, 1-((2-(2-Chlorophenyl)-8-methylquinolin-3-yl)methyl)-3-methyl-1H-pyrazolo[3,4-d]pyrimidin-4-amine] has an IC50 of 137 nM.
Molecule `Cc1cccc2nc(-c3ccccc3Cl)c(Cn3nc(I)c4c(N)ncnc43)nc12` [Example 15, 1-((3-(2-Chlorophenyl)-8-methylquinoxalin-2-yl)methyl)-3-iodo-1H-pyrazolo[3,4-d]pyrimidin-4-amine] has an IC50 of 38 nM.
With `Nc1ncnc2c1c(I)nn2Cc1cc2cccc(Cl)c2nc1-c1ccccc1Cl` [Example 5, 1-((8-Chloro-2-(2-chlorophenyl)quinolin-3-yl)methyl)-3-iodo-1H-pyrazolo[3,4-d]pyrimidin-4-amine] the IC50 was 14 nM.
In the case of `Cc1cccc2cc(Cn3nc(I)c4c(N)ncnc43)c(-c3ccccc3F)nc12` [Example 7, 1-((2-(2-Fluorophenyl)-8-methylquinolin-3-yl)methyl)-3-iodo-1H-pyrazolo[3,4-d]pyrimidin-4-amine], the IC50 is reported as 4 nM.
In the case of `Nc1ncnc2c1c(=O)ccn2Cc1cc2cccc(Cl)c2nc1-c1ccccc1Cl` [Example 22, 4-Amino-8-((8-chloro-2-(2-chlorophenyl)quinolin-3-yl)methyl)pyrido[2,3-d]pyrimidin-5(8H)-one], the IC50 is reported as 33 nM.
In the case of `Cc1cccc2cc(Cn3ccc4c(N)ncnc43)c(-c3ccccc3Cl)nc12` [Example 19, 7-((2-(2-Chlorophenyl)-8-methylquinolin-3-yl)methyl)-7H-pyrrolo[2,3-d]pyrimidin-4-amine], the IC50 is reported as 1970 nM.
`Cc1cccc2nc(-c3ccccc3Cl)c(Cn3nc(-c4cn[nH]c4)c4c(N)ncnc43)nc12` [Example 17, 1-((3-(2-Chlorophenyl)-8-methylquinoxalin-2-yl)methyl)-3-(1H-pyrazol-4-yl)-1H-pyrazolo[3,4-d]pyrimidin-4-amine] was tested, and the IC50 was 18 nM.
Work on `Cc1cccc2cc(Cn3nc(C4CC4)c4c(N)ncnc43)c(-c3ccccc3C(F)(F)F)nc12` [Example 13, 3-Cyclopropyl-1-((8-methyl-2-(2-(trifluoromethyl)phenyl)quinolin-3-yl)methyl)-1H-pyrazolo[3,4-d]pyrimidin-4-amine] yielded an IC50 of 149 nM.
`Cc1cccc2nc(Cn3nc(I)c4c(N)ncnc43)c(-c3ccccc3Cl)nc12` [Example 16, 1-((3-(2-Chlorophenyl)-5-methylquinoxalin-2-yl)methyl)-3-iodo-1H-pyrazolo[3,4-d]pyrimidin-4-amine] was tested, and the IC50 was 21 nM.
`Cc1cccc2cc(Cn3cnc4c(N)ncnc43)c(-c3ccccc3Cl)nc12` [Example 1, 9-((2-(2-Chlorophenyl)-8-methylquinolin-3-yl)methyl)-9H-purin-6-amine] gave an IC50 of 2130 nM.
Molecule `COc1ccccc1-n1c(Cn2ccc(=O)c3c(N)ncnc32)nc2cccc(Cl)c2c1=O` [Example 21, 4-Amino-8-((5-chloro-3-(2-methoxyphenyl)-4-oxo-3,4-dihydroquinazolin-2-yl)methyl)pyrido[2,3-d]pyrimidin-5(8H)-one] has an IC50 of 13 nM.
Molecule `Cc1cccc2cc(Cn3ccc(=O)c4c(N)ncnc43)c(-c3ccccc3Cl)nc12` [Example 2, 4-Amino-8-((2-(2-chlorophenyl)-8-methylquinolin-3-yl)methyl)pyrido[2,3-d]pyrimidin-5(8H)-one] has an IC50 of 58 nM.
`Cc1cccc2cc(Cn3nc(-c4cccc(O)c4)c4c(N)ncnc43)c(-c3ccccc3C(F)(F)F)nc12` [Example 8, 3-(4-Amino-1-((8-methyl-2-(2-(trifluoromethyl)phenyl)quinolin-3-yl)methyl)-1H-pyrazolo[3,4-d]pyrimidin-3-yl)phenol] gave an IC50 of 8 nM.
With `Cc1ccccc1-c1nc2c(C)cccc2cc1Cn1nc(I)c2c(N)ncnc21` [Example 4, 3-Iodo-1-((8-methyl-2-o-tolylquinolin-3-yl)methyl)-1H-pyrazolo[3,4-d]pyrimidin-4-amine] the IC50 was 6 nM.
With `Nc1ncnc2c1c(-c1cccc(O)c1)nn2Cc1cc2cccc(Cl)c2nc1-c1ccccc1Cl` [Example 10, 3-(4-Amino-1-((8-chloro-2-(2-chlorophenyl)quinolin-3-yl)methyl)-1H-pyrazolo[3,4-d]pyrimidin-3-yl)phenol] the IC50 was 14 nM.

These molecules were tested on human B cells (assay: Human B cells proliferation stimulated by anti-IgM). Conditions: B-cell; anti-Human IgM + CD40L-LZ, 72 h, 3H thymidine.
Type: cell-based
Method: Human B Cells Proliferation Stimulate by Anti-IgM
Isolate PBMCs from Leukopac or from human fresh blood. Isolate human B cells by using Miltenyi protocol and B cell isolation kit II.—human B cells were Purified by using AutoMacs.column.
Activation of Human B Cells
Use 96 well Flat bottom plate, plate 50000/well purified B cells in B cell proliferation medium (DMEM+5% FCS, 10 mM Hepes, 50 μM 2-mercaptoethanol); 150 μL medium contain 250 ng/mL CD40L-LZ recombinant protein (Amgen) and 2 μg/mL anti-Human IgM antibody (Jackson ImmunoReseach Lab.# 109-006-129), mixed with 50 μL B cell medium containing PI3K inhibitors and incubate 72 h at 37° C. incubator. After 72 h, pulse labeling B cells with 0.5-1 uCi/well ^3H thymidine for overnight ˜18 h, and harvest cell using TOM harvester.
`Nc1ncnc2c1c(-c1cn[nH]c1)nn2Cc1cc2cccc(Cl)c2nc1-c1ccccc1F` [1-((8-chloro-2-(2-fluorophenyl)-3-quinolinyl)methyl)-3-(1H-pyrazol-4-yl)-1H-pyrazolo[3,4-d]pyrimidin-4-amine] gave an IC50 of 18.2 nM.
`Cc1nn(Cc2cc3c(Cl)cccc3nc2-c2ccccc2C(F)(F)F)c2ncnc(N)c12` [Example 31, 1-((5-Chloro-2-(2-(trifluoromethyl)phenyl)quinolin-3-yl)methyl)-3-methyl-1H-pyrazolo[3,4-d]pyrimidin-4-amine] gave an IC50 of 136 nM.
`Cc1nn([C@@H](C)c2cc3cccc(Cl)c3nc2-c2cccc(F)c2)c2ncnc(N)c12` [Example 23, 1-((S)-1-(8-chloro-2-(3-fluorophenyl)quinolin-3-yl)ethyl)-3-methyl-1H-pyrazolo[3,4-d]pyrimidin-4-amine] showed an IC50 of 1.57 nM.
Work on `Nc1ncnc2c1c(I)nn2Cc1nc2cccc(F)c2nc1-c1ccccc1Cl` [1-((3-(2-Chlorophenyl)-5-fluoroquinoxalin-2-yl)methyl)-3-iodo-1H-pyrazolo[3,4-d]pyrimidin-4-amine] yielded an IC50 of 554 nM.
`Cc1cccc2nc(-c3ccccc3Cl)c(Cn3nc(-c4cnn(C)c4)c4c(N)ncnc43)nc12` [1-((3-(2-chlorophenyl)-8-methylquinoxalin-2-yl)methyl)-3-(1-methyl-1H-pyrazol-4-yl)-1H-pyrazolo[3,4-d]pyrimidin-4-amine] showed an IC50 of 19.8 nM.
For `Cc1cccc2nc(Cn3nc(-c4cnn(C)c4)c4c(N)ncnc43)c(-c3ccccc3Cl)nc12` [1-((3-(2-chlorophenyl)-5-methylquinoxalin-2-yl)methyl)-3-(1-methyl-1H-pyrazol-4-yl)-1H-pyrazolo[3,4-d]pyrimidin-4-amine], the IC50 was 37 nM.
`Nc1ncnc2c1c(I)nn2Cc1cc2c(Cl)cccc2nc1-c1ccccc1Cl` [Example 25, 1-((5-Chloro-2-(2-chlorophenyl)quinolin-3-yl)methyl)-3-iodo-1H-pyrazolo-[3,4-d]pyrimidin-4-amine] gave an IC50 of 93.4 nM.
Molecule `Cc1nn(Cc2cc3cccc(Cl)c3nc2-c2ccccc2C(F)(F)F)c2ncnc(N)c12` [Example 30, 1-((8-chloro-2-(2-(trifluoromethyl)phenyl)quinolin-3-yl)methyl)-3-methyl-1H-pyrazolo[3,4-d]pyrimidin-4-amine] has an IC50 of 44.8 nM.
Work on `Cc1cccc2nc(-c3ccccc3Cl)c(Cn3nc(C#N)c4c(N)ncnc43)nc12` [4-Amino-1-((3-(2-chlorophenyl)-8-methylquinoxalin-2-yl)methyl)-1H-pyrazolo[3,4-d]pyrimidine-3-carbonitrile] yielded an IC50 of 83.8 nM.
